Where two headings read alike, the source gives them in different places. Starred links: 1 amine or outer side, 2 acyl side, 3 side chain; linkers in the order of their positions; H or OH if unused. Non-standard residues stand in square brackets, D forms with d. Groups on a side chain read outwards from the residue. *: point of attachment. Decanoyl(10-(4-HOOC-PhO)) = O=C(O)c1ccc(OCCCCCCCCCC(=O)*)cc1; C20 diacid = O=C(O)CCCCCCCCCCCCCCCCCCC(=O)*; C18 diacid = O=C(O)CCCCCCCCCCCCCCCCC(=O)*; C16 diacid = O=C(O)CCCCCCCCCCCCCCC(=O)*; γGlu = O=C(O)[C@H](CCC(=O)[*:2])N[*:1]; εLys = N[C@@H](CCCCN[*:1])C(=O)[*:2]; Trx = NC[C@H]1CC[C@H](C(=O)O)CC1; AEEA = NCCOCCOCC(=O)O; Aib = CC(C)(N)C(=O)O
Key:
[1] = molecular target: T1, human amylin receptor (hAmyR3) (Homo sapiens, UniProt O60896+P30988); test: Human amylin receptor in vitro potency assay (CRE-luciferase reporter, BHK cells); format: cell-based;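 note: BHK cells expressing human calcitonin receptor plus RAMP3 (amylin-3 receptor) with a CRE-luciferase reporter, agonist activity read as luminescence from cAMP-driven transcription, 7-point serial dilutions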
T1 construct: host or cells: BHK cells (Hollex-1 line: human calcitonin receptor (a) + CRE-Luc), further transfected with human RAMP3
Source text: Activation of hAmyR3 leads to increased cellular concentrations of cAMP. Consequently, transcription is activated by promotors containing multiple copies of the cAMP response element (CRE). It is thus possible to measure hAmyR3 activity using a CRE-luciferase reporter gene introduced into Baby Hamster Kidney (BHK) cells co-expressing the hAmyR3.
The cell line was further transfected with human receptor modifying protein 3 (RAMP3) using standard methods. This turns the human calcitonin receptor into a human amylin-3(a) receptor.
(§1) Cells were aliquoted and stored at -180° C. until use.
The plate was incubated over night at 37° C. in 5% CO2. On the day of the assay, cells were washed three times in assay buffer. Serial dilutions (7-fold dilutions, 7 concentrations pr. compound and one well containing only assay buffer) of comparator compounds and GLP-1 receptor-amylin receptor co-agonists were performed in assay buffer often starting from approximately 10-100 nM in 96-well plates and 30 µL of each concentration added to the 384-well assay plate with cells. […] The assay plate was sealed, incubated at room temperature with gentle shaking for 5 minutes followed by 30 minutes incubation without shaking while protected from light. Luminescence was detected on a luminescence plate reader e.g. a Synergy 2 (BioTek).

[2] = Pharmacokinetic studies in Beagle dogs after oral administration of SNAC-based tablets; format: in vivo; settings: for Tmax / half-life / T½: male, Beagle
How it was run: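 Fasted male Beagle dogs received immediate-release oral tablets containing 3–4 mg test substance with 100–300 mg SNAC, optionally after ~3 nmol/kg s.c. SEQ ID NO: 237 10 min before. EDTA plasma sampled up to 240 h; LCMS concentrations analysed non-compartmentally.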

[3] = molecular target: T2, human GLP-1 receptor (Homo sapiens, UniProt P43220); test: Human GLP-1 receptor in vitro potency assay (CRE-luciferase reporter, BHK cells); format: cell-based
T2 construct: expressed in transfected cells; host or cells: BHK (Baby Hamster Kidney) cells, clone BHK 467-12A KZ-10, stably transfected, with CRE-luciferase reporter
Procedure: It is thus possible to measure GLP-1 receptor activity using a CRE-luciferase reporter gene introduced into Baby Hamster Kidney (BHK) cells co-expressing the GLP-1 receptor.
as §1
Plates were sealed and incubated at room temperature with gentle shaking for 30 minutes while protected from light. Luminescence was detected on a luminescence plate reader e.g. a Synergy 2 (BioTek).

[4] = system: Sprague Dawley (SD) rats; test: Acute food intake in ad libitum fed rats after a single subcutaneous administration; format: in vivo, rat; settings: Table 6a, rat, single administration;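 note: food intake monitored in the HM2 system, three rats per cage kept on a reversed light cycle, with food and water freely available after the subcutaneous dose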
Source text: Sprague Dawley (SD) rats from Taconic Europe, Denmark were used for the acute food intake experiments, wherein the principles of laboratory animal care were followed.
The rats arrived at least 10-14 days before the start of the experiment to allow acclimatisation to experimental settings. During this period, the animals were handled at least 2 times. Immediately upon arrival, rats were put on a reversed light cycle (dark from 11am - 11pm) and put in the HM2 system and ID chipped. Three rats were housed in each cage. […] The rats were dosed once according to body weight with a 0.01-3 mg/kg solution administered subcutaneously (sc). The time of dosing was recorded for each group.
After dosing, the rats were returned to their home cages, where they had access to food and water. […] At the end of the experimental session, the animals were euthanised.

[5] = Table 4a, BHK hAmyR3/CRE-Luc cells, 3 hours, read-out: Human AmyR3 potency [EC50 (pM)]
[6] = Table 4a, BHK cells expressing human GLP-1R, CRE-Luc, 3 hours, read-out: Human GLP-1R potency [EC50 (pM)]
[7] = dogs, oral administration (tablet)
[8] = dog, in vivo, dogs, oral administration (tablet), read-out: Tmax
[9] = dog, in vivo, dogs, oral administration (tablet), read-out: T½ (converted)

T1 sequence (P30988 25-474): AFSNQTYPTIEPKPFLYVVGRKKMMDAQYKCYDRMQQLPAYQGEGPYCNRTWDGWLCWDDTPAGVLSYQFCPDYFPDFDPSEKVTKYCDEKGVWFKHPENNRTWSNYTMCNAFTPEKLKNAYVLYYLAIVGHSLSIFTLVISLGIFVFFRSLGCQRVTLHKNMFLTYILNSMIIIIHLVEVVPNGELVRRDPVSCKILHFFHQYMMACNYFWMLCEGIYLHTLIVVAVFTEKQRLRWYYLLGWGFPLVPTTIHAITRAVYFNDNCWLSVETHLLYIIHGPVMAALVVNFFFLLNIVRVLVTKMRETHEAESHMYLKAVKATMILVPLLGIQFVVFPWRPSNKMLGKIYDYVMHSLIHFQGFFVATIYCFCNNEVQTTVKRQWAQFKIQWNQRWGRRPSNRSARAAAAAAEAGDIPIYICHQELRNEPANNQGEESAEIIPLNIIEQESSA
T1 sequence (O60896 24-148): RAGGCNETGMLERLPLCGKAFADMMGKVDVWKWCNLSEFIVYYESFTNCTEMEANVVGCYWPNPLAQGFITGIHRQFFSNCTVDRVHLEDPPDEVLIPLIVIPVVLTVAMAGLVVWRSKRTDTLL
T2 sequence (P43220 24-463): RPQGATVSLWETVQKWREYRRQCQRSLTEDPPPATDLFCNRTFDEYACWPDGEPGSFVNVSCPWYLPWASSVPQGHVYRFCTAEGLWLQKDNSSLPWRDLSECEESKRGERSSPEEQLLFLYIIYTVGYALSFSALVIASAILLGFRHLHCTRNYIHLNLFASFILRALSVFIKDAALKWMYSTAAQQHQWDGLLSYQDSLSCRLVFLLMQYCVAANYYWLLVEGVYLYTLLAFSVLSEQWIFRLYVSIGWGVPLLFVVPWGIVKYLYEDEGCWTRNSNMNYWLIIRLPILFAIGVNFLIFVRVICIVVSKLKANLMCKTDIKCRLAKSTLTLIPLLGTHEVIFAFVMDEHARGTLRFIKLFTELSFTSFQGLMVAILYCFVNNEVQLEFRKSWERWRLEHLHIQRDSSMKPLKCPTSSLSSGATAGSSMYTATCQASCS

Row | Compound | EC50 [1, 5] | AUC/D ([2]; dog, in vivo, po) | Cmax/D ([2]; dog, in vivo, po) | Tmax ([2]; dog, in vivo, po, Tmax (hr)) | half-life ([2]; dog, in vivo, po, T½ (hr)) | EC50 [3, 6] | Food intake relative to vehicle (%) 0-24 hr, 10 nmol/kg [4] | Food intake relative to vehicle (%) 24-48 hr, 10 nmol/kg [4] | T½ ([2]; dog, in vivo, po) | EC50 [1] | AUC/D [2, 7] | Cmax/D [2, 7] | Tmax [2, 8] | half-life [2, 9] | EC50 [3] | Ability to agonise the amylin receptor, in words ([1]; Tables 4a-4c) | Tmax ([2]; dog, in vivo, po) | Ability to agonise the GLP-1 receptor, in words ([3]; Tables 4a-4c)
1 | H-H[Aib]EGTFTSDVSSYLEGQAAKEFIAWLVRGRK([εLys-AEEA-AEEA-γGlu-C18 diacid])GGEASELSTAALGRLSAELHELATLPRTETGSGSP-NH2 [Compound 0045] | 25.9 pM | 10.90 kg·h/L | 0.27 kg/L | 1.3 h | 41 h | 19.4 pM | 46% | 80% | – | – | – | – | – | – | – | – | – | –
2 | H-H[Aib]EGTFTSDVSK([AEEA-AEEA-γGlu-C16 diacid])YLEEQAARK([AEEA-AEEA-γGlu-C16 diacid])FIAWLVRGRGGGGGEASELSTAALGRLSAELHELATLPRTETGSGSP-NH2 [Compound 0516] | 8.9 pM | – | – | 2 h | 99 h | 3.3 pM | 87% | 82% | 103 h | – | – | – | – | – | – | – | – | –
3 | H-HWEGTFTSDVSSYLEEQAARK([AEEA-AEEA-γGlu-Decanoyl(10-(4-HOOC-PhO))])FIEWLVRGRGEGGGGGASELSTAALGRLSAELHELK([AEEA-AEEA-γGlu-Decanoyl(10-(4-HOOC-PhO))])TLPRTETGSGSP-NH2 [Compound 0232] | – | – | – | – | – | – | 61% | 95% | – | 74.2 pM | 2.00 kg·h/L | 0.51 kg/L | 0.8 h | 4 h | 6.4 pM | – | – | –
4 | H-H[Aib]EGTFTSDVSSYLEEQAAREFIAWLVRGRK([AEEA-AEEA-γGlu-C18 diacid])GGGGEASELSTAALGRLSAELHELATLPRTETGSGSP-NH2 [Compound 0111] | 11.5 pM | – | – | 1.5 h | 44 h | 3 pM | 28% | 75% | 42 h | – | – | – | – | – | – | retained full potency on both receptors | 2.0 h | retained full potency on both receptors
5 | H-HWEGTFTSDVSSYLEEQAARK([AEEA-AEEA-γGlu-Decanoyl(10-(4-HOOC-PhO))])FIEWLVRGRGEGGGGGASELSTAALGRLSK([AEEA-AEEA-γGlu-Decanoyl(10-(4-HOOC-PhO))])ELHELATLPRTETGSGSP-NH2 [Compound 0231] | – | – | – | – | – | – | 27% | 76% | – | 68 pM | 0.83 kg·h/L | 0.27 kg/L | 1 h | 6 h | 5.6 pM | – | – | –
6 | H-H[Aib]EGTFTSDVSSYLEEQAAREFIAWLVRGRK([AEEA-AEEA-γGlu-C20 diacid])GGGGEASELSTAALGRLSAELHELATLPRTETGSGSP-NH2 [Compound 0502] | 9 pM | – | – | 2 h | 66 h | 8.4 pM | 61% | 72% | – | – | – | – | – | – | – | – | 4.0 h | –
7 | H-H[Aib]EGTFTSDVSK([AEEA-AEEA-γGlu-C18 diacid])YLEEQAAREFIAWLVRGRGGGGGEASELSTAALGRLSAELHELATLPRTETGSGSP-NH2 [Compound 0640] | 6 pM | 7.57 kg·h/L | 0.37 kg/L | 1.5 h | 29 h | 2.3 pM | 28% | 66% | – | – | – | – | – | – | – | – | – | –
8 | H-H[Aib]EGTFTSDVSSYLEGQAAREFIAWLVRGRGQEPK([AEEA-AEEA-γGlu-C18 diacid])GQAPEASELSTAALGRLSAELHELATLPRTETGSGSP-NH2 [Compound 0084] | 14 pM | 15.16 kg·h/L | 0.36 kg/L | 1.5 h | 47 h | 2.5 pM | 44% | 50% | – | – | – | – | – | – | – | – | – | –
9 | H-H[Aib]EGTFTSDVSSYLEEQAAREFIAWLVRGRK([εLys-AEEA-AEEA-γGlu-C20 diacid])GGGGEASELSTAALGRLSAELHELATLPRTETGSGSP-NH2 [Compound 0552] | 6.9 pM | 8.58 kg·h/L | 0.22 kg/L | 1 h | 52 h | 4.7 pM | 56% | 55% | – | – | – | – | – | – | – | – | – | –
10 | CC[C@H](C)[C@H](NC(=O)[C@H](Cc1ccccc1)NC(=O)[C@H](CCC(=O)O)NC(=O)[C@H](CCCNC(=N)N)NC(=O)[C@H](C)NC(=O)[C@H](C)NC(=O)[C@H](CCC(N)=O)NC(=O)[C@H](CCC(=O)O)NC(=O)[C@H](CCC(=O)O)NC(=O)[C@H](CC(C)C)NC(=O)[C@H](Cc1ccc(O)cc1)NC(=O)[C@H](CO)NC(=O)[C@H](CO)NC(=O)[C@H](CCCCNC(=O)COCCOCCNC(=O)COCCOCCNC(=O)CC[C@H](NC(=O)[C@H]1CC[C@H](CNC(=O)CCCCCCCCCCCCCCCCCCC(=O)O)CC1)C(=O)O)NC(=O)[C@H](CC(=O)O)NC(=O)[C@H](CO)NC(=O)[C@@H](NC(=O)[C@H](Cc1ccccc1)NC(=O)[C@@H](NC(=O)CNC(=O)[C@H](CCC(=O)O)NC(=O)C(C)(C)NC(=O)[C@@H](N)Cc1c[nH]cn1)[C@@H](C)O)[C@@H](C)O)C(=O)N[C@@H](CCC(=O)O)C(=O)N[C@@H](Cc1c[nH]c2ccccc12)C(=O)N[C@@H](CC(C)C)C(=O)N[C@H](C(=O)N[C@@H](CCCNC(=N)N)C(=O)NCC(=O)N[C@@H](CCCNC(=N)N)C(=O)NCC(=O)N[C@@H](CCC(=O)O)C(=O)N[C@@H](C)C(=O)N[C@@H](CO)C(=O)N[C@@H](CCC(=O)O)C(=O)N[C@@H](CC(C)C)C(=O)N[C@@H](CO)C(=O)N[C@H](C(=O)N[C@@H](C)C(=O)N[C@@H](C)C(=O)N[C@@H](CC(C)C)C(=O)NCC(=O)N[C@@H](CCCNC(=N)N)C(=O)N[C@@H](CC(C)C)C(=O)N[C@@H](CO)C(=O)N[C@@H](C)C(=O)N[C@@H](CCC(=O)O)C(=O)N[C@@H](CC(C)C)C(=O)N[C@@H](Cc1c[nH]cn1)C(=O)N[C@@H](CCC(=O)O)C(=O)N[C@@H](CC(C)C)C(=O)N[C@@H](C)C(=O)N[C@H](C(=O)N[C@@H](CC(C)C)C(=O)N1CCC[C@H]1C(=O)N[C@@H](CCCNC(=N)N)C(=O)N[C@H](C(=O)N[C@@H](CCC(=O)O)C(=O)N[C@H](C(=O)NCC(=O)N[C@@H](CO)C(=O)NCC(=O)N[C@@H](CO)C(=O)N1CCC[C@H]1C(N)=O)[C@@H](C)O)[C@@H](C)O)[C@@H](C)O)[C@@H](C)O)C(C)C [Compound 0440] | – | – | – | – | – | – | 81% | 77% | – | 10.4 pM | 5.78 kg·h/L | 0.29 kg/L | 1.8 h | 32 h | 5.7 pM | – | – | –
11 | H-H[Aib]EGTFTSDVSSYLEEQAARK([εLys-AEEA-AEEA-γGlu-Trx-C20 diacid])FIEWLVRGRGEASELSTAALGRLSAELHELATLPRTETGSGSP-NH2 [Compound 0439] | 10.7 pM | 5.36 kg·h/L | 0.21 kg/L | 2 h | 24 h | 8.3 pM | 43% | 41% | – | – | – | – | – | – | – | – | – | –
12 | H-H[Aib]EGTFTSDVSRYLEEQAAREFIEWLVRGRK([AEEA-AEEA-γGlu-Trx-C20 diacid])GGGGEASELSTAALGRLSAELHELATLPRTETGSGSP-NH2 [Compound 0511] | 8.4 pM | 3.80 kg·h/L | 0.14 kg/L | 2 h | 25 h | 8.8 pM | 61% | 75% | – | – | – | – | – | – | – | – | – | –
